# “And” between values parts separate entries of the source, which are not always exact repeats. Equal values may be shown once.
# Assays:
# ATCC 43300 MRSA strain = test: Induction of resistance studies, ex vivo bacterial exposure to 4×MIC (Example 1); assay type: cell-based, Staphylococcus aureus; details: ex vivo exposure to 4×MIC; single and combination therapy; 24h or 72h biofilm
# Description: Two experimental settings were used in this study to evaluate the treatment efficacies against early (24h) and/or mature (72h) MRSA catheter formed biofilms. Briefly, mice were anaesthetised by an IP injection of about 120 μl a mix of ketamine (50 mg/kg) and xylazine (10 mg/kg) (4 mL ketamine+2 mL xylazine+10 mL saline). Flank on the right side was shaved and then disinfected by 3 consecutive applications of betadine. A cutaneous and then subcutaneous (SC) incisions of 0.2 cm were made under sterile conditions and a 1 cm segment of polyurethane catheter (Ref. No. ES-04730 Arrow international) cut into 2 longitudinal fragments was inserted SC (into the incision and then pushed further under the skin, about 2 cm away from the incision). The inoculation was done simultaneously by placing 50 μl of the bacterial culture onto the catheter (10^6 CFU of ATCC 43300 MRSA strain). The incision was stitched up and disinfected. The day of the infection was referred to as Day0 (D0). To ensure that the study was conducted in sterile conditions from the start to the end of the experiment, non-infected mice (sentinel group) were included. […] In both 24 h and 72h biofilm settings, two groups of infected non-treated animals (Vehicle controls) were evaluated for bacterial counts: at baseline (24h or D1 [for 24-h biofilm] and 72h or D3 [for 72-h biofilm] post infection, i.e. time points corresponding to treatments initiations) and at the termination of treatment duration (D6 [for 24-h biofilm] and D8 [for 72-h biofilm] post infection). Post treatment CFUs were counted on D6 or D8 and results were expressed as Log10 CFU/g of catheter (Mean±SEM). The limit of detection was determined as being 1 Log10 CFU/g of catheter. Changes of CFU/g of catheter (Δ Log10) from the baseline (D1 or D3 for 24-h and 72-h biofilm, respectively) and cure rates (corresponding to the percentage of mice without catheter-associated bacteria within a given treatment group) were also calculated. In vivo induction of antibiotic-resistant bacteria was analysed for all tested antibiotics.
# [1] = test system: S. aureus ATCC 43300 (MRSA); test: Mouse tissue cage model of MRSA infection, 11-day treatment at lower dosage (Example 3); assay type: in vivo, Staphylococcus aureus; details: for Cure rate (%) / adherent bacteria reduction from baseline (mean±SD): 24-h biofilm; for Cure rate (%) / adherent bacteria reduction from baseline (mean±SD) / day on which bactericidal effect (mean reduction of bacterial load by ≥3 Log10) on planktonic bacteria was exerted / Planktonic day 3 Δlog from baseline (individual animal) / Planktonic day 6 Δlog from baseline (individual animal) / Planktonic day 9 Δlog from baseline (individual animal) / Planktonic day 11 Δlog from baseline (individual animal): 11-day treatment; for Cure rate (%): cages without growth / total cages; for adherent bacteria reduction from baseline (mean±SD): n=6, given as positive reduction; for Adherent Mean / Adherent Δlog from baseline (individual animal): medium after sonication of explanted tissue cages, day 14 vs day 1; for Adherent Mean: group mean; for day on which bactericidal effect (mean reduction of bacterial load by ≥3 Log10) on planktonic bacteria was exerted: planktonic bacteria in tissue cage fluid; for Planktonic day 3 Δlog from baseline (individual animal) / Planktonic day 6 Δlog from baseline (individual animal) / Planktonic day 9 Δlog from baseline (individual animal) / Planktonic day 11 Δlog from baseline (individual animal) / Planktonic day 14 Δlog from baseline (individual animal) / Planktonic day 3 Mean / Planktonic day 6 Mean / Planktonic day 9 Mean / Planktonic day 11 Mean / Planktonic day 14 Mean: tissue cage fluid; for Planktonic day 3 Δlog from baseline (individual animal) / Planktonic day 6 Δlog from baseline (individual animal) / Planktonic day 9 Δlog from baseline (individual animal) / Planktonic day 11 Δlog from baseline (individual animal): baseline day 1; for Planktonic day 14 Δlog from baseline (individual animal): 3 days after end of 11-day treatment; for Planktonic day 3 Mean / Planktonic day 6 Mean / Planktonic day 9 Mean / Planktonic day 11 Mean / Planktonic day 14 Mean: group mean Δlog from baseline
# From the text: The purpose of this study was to evaluate the efficacy of Debio 1450 BES alone and in combination with Daptomycin (DAP) in the mouse tissue cage model of implant-associated infections caused by methicillin resistant Staphylococcus (S.) aureus (MRSA) at lower dosage and longer treatment duration than used in the previous study (Example 2). The efficacy against 24-h biofilm of S. aureus ATCC 43300 (MRSA) was investigated. Employing a small initial inoculum (ca. 300 CFU/cage) together with a 24-h biofilm allowed to simulate clinical settings of an acute implant infection and/or surgical debridement.
# The Debio 1450 BES dose of 20 mg/kg BID reflects the most current HED of 240 mg BID obtained in the recent PK studies (50 mg/kg BID was used in Example 2 based on the previous PK analysis). […] The treatment duration of 11 days was selected to compensate lowering of the dose of Debio 1450 BES (5.5-day treatment was used in Example 2) and is in line with the prolonged antibiotic therapy applied in patients with prosthetic joint infections.
# The same mouse tissue cage model was employed as described in Example 2 above. The animals received antibiotic treatment i.p. on day 1 post-infection through day 11. One group received only 5% glucose and served as infected, untreated control group (vehicle). […] Debio 1450 BES and vehicle were administered bid, and DAP was administered qdam. In the present study we investigated the efficacy of lower dosage in a prolonged treatment duration.
# Five to 6 days before infection, TCF was aspirated to ascertain the sterility of implanted cages by TCF plating on blood agar plates. TCF was aspirated and plated on day 1 (before treatment) to confirm the establishment of infection. In addition, the number of bacteria in TCF was determined on day 3 (before the first injection that day), on day 6, day 9 and on day 11 (before last treatment), and on day 14 (before explantation of the cages) to evaluate the treatment efficacy against planktonic bacteria. The mouse number and bacterial count for the given cage is reported to analyse the time course of antibacterial activity of the tested drugs. The efficacy against biofilm-embedded bacteria is assessed qualitatively and quantitatively following aseptic explantation of the tissue cages 3 days after the completion of treatment. The 3 days of resting period helped to avoid the antibiotic carryover effect. Upon explantation, cages were washed twice with phosphate buffered saline (PBS) (Lot #5060914) and immediately transferred into 5 mL 0.9% NaCl (Lot #L171095). Following 30 s vortexing, sonication (3 min at 130 W), and an additional 30 s vortexing step the numbers of bacteria dispersed from biofilm was determined by plating. The sonicated cages were washed once with PBS, transferred into 5 mL TSB (Lot #0286463), and incubated for 48 h at 37° C., with an additional vortexing step after 24 h of incubation. After the incubation, tubes were vortexed again and bacterial regrowth was assessed visually. In addition, 100 μL of each culture was plated on blood agar plates to ascertain the regrowth. A positive culture is defined as a treatment failure. The efficacy of treatment against adherent bacteria is expressed as the cure rate (in percent), defined as the number of cages without growth divided by the total number of cages in the individual treatment group. In addition, single colonies from the re-growth plates were used to achieve the 0.5 McFarland. 100 μl of each 0.5 McFarland culture was plated on MHA plates containing the antibiotics corresponding to the treatment used (note: bacteria from mice treated with Debio 1450 will be plated on plates containing Debio 1452).
# MSSA ATCC 29213 = test: Mouse tissue cage model of staphylococcal biofilm infection, MSSA (Example 4); assay type: in vivo, Staphylococcus aureus; details: 24-h biofilm MSSA ATCC 29213; 11-d treatment; cages explanted day 14
# Description: After the incubation, tubes were vortexed again and bacterial regrowth was assessed visually. […] The efficacy of treatment against adherent bacteria is expressed as the cure rate (in percent), defined as the number of cages without growth divided by the total number of cages in the individual treatment group.
structure (smiles),measurement,setting,value
CCCCCCCCCC(=O)N[C@@H](Cc1c[nH]c2ccccc12)C(=O)N[C@H](CC(N)=O)C(=O)N[C@@H](CC(=O)O)C(=O)N[C@@H]1C(=O)NCC(=O)N[C@@H](CCCN)C(=O)N[C@@H](CC(=O)O)C(=O)N[C@H](C)C(=O)N[C@@H](CC(=O)O)C(=O)NCC(=O)N[C@H](CO)C(=O)N[C@@H]([C@H](C)CC(=O)O)C(=O)N[C@@H](CC(=O)c2ccccc2N)C(=O)O[C@@H]1C [Daptomycin],emergence of resistant mutants,ATCC 43300 MRSA strain,no emergence of resistant mutants
same,Cure rate (%),[1],50%
same,adherent bacteria reduction from baseline (mean±SD),[1],3.15±2.74 log 10 CFU/mL
same,Adherent Mean,[1],−3 log 10 CFU/mL
same,Adherent Δlog from baseline (individual animal),[1]; listed as DAP,−4.2 log 10 CFU/mL and −0.3 log 10 CFU/mL and 0.24 log 10 CFU/mL and −6 log 10 CFU/mL (2×) and −2.5 log 10 CFU/mL
same,day on which bactericidal effect (mean reduction of bacterial load by ≥3 Log10) on planktonic bacteria was exerted,[1],6 day
same,Planktonic day 3 Δlog from baseline (individual animal),[1]; listed as DAP,−2.56 Log10 and −2.18 Log10 and −3.12 Log10 and −2.06 Log10 and −3.41 Log10 and −3.62 Log10
same,Planktonic day 6 Δlog from baseline (individual animal),[1]; listed as DAP,−2.7 Log10 and −3.5 Log10 (2×) and −3.4 Log10 (2×) and −3.6 Log10
same,Planktonic day 9 Δlog from baseline (individual animal),[1]; listed as DAP,−4.6 Log10 and −5.5 Log10 and −2.7 Log10 and −3.4 Log10 and −3.6 Log10 (2×)
same,Planktonic day 11 Δlog from baseline (individual animal),[1]; listed as DAP,−4.6 Log10 and −2.9 Log10 and −2.70 Log10 and −3.4 Log10 and −5.2 Log10 and −3.6 Log10
same,Planktonic day 14 Δlog from baseline (individual animal),[1]; listed as DAP,−4.6 Log10 and −1.1 Log10 and −1.5 Log10 and −3.4 Log10 and −0.6 Log10 and −3.6 Log10
same,Planktonic day 3 Mean,[1],−3 Log10
same,Planktonic day 6 Mean,[1],−3.33 Log10
same,Planktonic day 9 Mean,[1],−3.9 Log10
same,Planktonic day 11 Mean,[1],−3.73 Log10
same,Planktonic day 14 Mean,[1],−2 Log10
"Cc1c(CN(C)C(=O)/C=C/c2cnc3c(c2)CCC(=O)N3COP(=O)(O)O)oc2ccccc12 [Debio 1450, {6-[(1E)-3-{methyl [(3-methyl-1-benzofuran-2-yl)methyl]amino}-3-oxoprop-1-en-1-yl]-2-oxo-3,4-dihydro-1,8-naphthyridin-1 (2H)-yl} methyl dihydrogen phosphate]",Cure rate (%),MSSA ATCC 29213,14.3%
same,Cure rate (%),[1],83%
same,adherent bacteria reduction from baseline (mean±SD),[1],4.35±2.5 log 10 CFU/mL
same,Adherent Δlog from baseline (individual animal),[1],−4.2 log 10 CFU/mL (2×) and 0.43 log 10 CFU/mL and −6 log 10 CFU/mL (3×)
same,Adherent Mean,[1],−4 log 10 CFU/mL
same,day on which bactericidal effect (mean reduction of bacterial load by ≥3 Log10) on planktonic bacteria was exerted,[1],6 day
same,Planktonic day 3 Δlog from baseline (individual animal),[1],−1.46 Log10 and −3.68 Log10 and −2.22 Log10 and −3.33 Log10 and −3.03 Log10 and −2.37 Log10
same,Planktonic day 6 Δlog from baseline (individual animal),[1],−3.1 Log10 and −3.7 Log10 (2×) and −4.2 Log10 and −3.3 Log10 and −3 Log10
same,Planktonic day 9 Δlog from baseline (individual animal),[1],−3.1 Log10 and −3.7 Log10 and −6.2 Log10 and −3.3 Log10 and −3 Log10 and −5.3 Log10
same,Planktonic day 11 Δlog from baseline (individual animal),[1],−3.1 Log10 and −3.7 Log10 and −6.2 Log10 and −3.3 Log10 and −3 Log10 and −5.3 Log10
same,Planktonic day 14 Δlog from baseline (individual animal),[1],−3.1 Log10 and −3.7 Log10 and −0.2 Log10 and −3.3 Log10 and −3 Log10 and −5.3 Log10
same,Planktonic day 3 Mean,[1],−3 Log10
same,Planktonic day 6 Mean,[1],−3.50 Log10
same,Planktonic day 9 Mean,[1],−4.10 Log10
same,Planktonic day 11 Mean,[1],−4.10 Log10
same,Planktonic day 14 Mean,[1],−3 Log10
CO[C@H]1/C=C/O[C@@]2(C)Oc3c(C)c(O)c4c(O)c(c(/C=N/N5CCN(C)CC5)c(O)c4c3C2=O)NC(=O)/C(C)=C\C=C\[C@H](C)[C@H](O)[C@@H](C)[C@@H](O)[C@@H](C)[C@H](OC(C)=O)[C@@H]1C [Rifampicin],Cure rate (%),MSSA ATCC 29213,100%

# — patent publication US12414958B2, “Medicament and use thereof for treating bacterial infections involving biofilm” (Debiopharm International S.A., priority 2019, dated 2025)
